From publication PMC7712541, “Seven New Cytotoxic and Antimicrobial Xanthoquinodins from Jugulospora vestita” (Journal of Fungi, 2020)
Values after ≈ are worked out from the molar mass of the structure shown.

Key:
Candida albicans = test: MIC, antifungal test; assay type: cell-based; design: key to Minimum inhibitory concentration (MIC): –: no inhibition observed under test conditions
Protocol: (§1) Compounds were tested for their antimicrobial activity against […] fungi (Candida albicans, Mucor hiemails, Pichia anomala, Rhodotorula glutinis and Schizosaccharomyces pombe), four different Gram-positive bacteria (Bacillus subtilis, Micrococcus luteus, Mycobacterium smegmatis and Staphylococcus aureus), and three Gram-negative bacteria (Chromobacterium violaceum, Escherichia coli and Pseudomonas aeruginosa), using oxytetracycline as a positive control against Gram-positive and Gram-negative bacteria, while nystatin was used as an antifungal positive control. Besides, cytotoxicities of the compounds against seven mammalian cell lines (human endocervical adenocarcinoma KB 3.1, breast cancer MCF-7, lung cancer A549, ovary cancer SK-OV-3, prostate cancer PC-3, squamous cancer A431, and mouse fibroblasts L929) were determined by the microculture tetrazolium test (MTT) method, using epothilon B as the positive control. Both bioactivity assays were performed following our standard protocols.

Mucor hiemalis = test: MIC, antifungal test; assay type: cell-based; design: key to Minimum inhibitory concentration (MIC): –: no inhibition observed under test conditions; details: for MIC: read-out: Minimum inhibitory concentration (MIC)
Protocol: as §1

Pichia anomala = test: MIC, antifungal test; assay type: cell-based; design: key to Minimum inhibitory concentration (MIC): –: no inhibition observed under test conditions
Protocol: as §1

Rhodotorula glutinis = test: MIC, antifungal test; assay type: cell-based; design: key to Minimum inhibitory concentration (MIC): –: no inhibition observed under test conditions
Protocol: as §1

[1] = system: Schizosaccharomyces pombe; test: MIC, antifungal test; assay type: cell-based; design: key to Minimum inhibitory concentration (MIC): –: no inhibition observed under test conditions
Protocol: as §1

Bacillus subtilis = test: MIC, antibacterial test; assay type: cell-based; details: read-out: Minimum inhibitory concentration (MIC)
Protocol: as §1

Micrococcus luteus = test: MIC, antibacterial test; assay type: cell-based; details: read-out: Minimum inhibitory concentration (MIC)
Protocol: as §1

Staphylococcus aureus = test: MIC, antibacterial test; assay type: cell-based; details: read-out: Minimum inhibitory concentration (MIC)
Protocol: as §1

Mycobacterium smegmatis = test: MIC, antibacterial test; assay type: cell-based; design: key: –: no inhibition observed under test conditions
Protocol: as §1

[2] = system: Chromobacterium violaceum; test: MIC, antibacterial test; assay type: cell-based; design: key to Minimum inhibitory concentration (MIC): –: no inhibition observed under test conditions
Protocol: as §1

Escherichia coli = test: MIC, antibacterial test; assay type: cell-based; design: key to Minimum inhibitory concentration (MIC): –: no inhibition observed under test conditions
Protocol: as §1

Pseudomonas aeruginosa = test: MIC, antibacterial test; assay type: cell-based; design: key to Minimum inhibitory concentration (MIC): –: no inhibition observed under test conditions
Protocol: as §1

Cytotoxicity, MTT method = test: Cytotoxicity, MTT method
Protocol: as §1

[3] = system: KB 3.1, L929, A549, SK-OV-3, PC-3, A431, and MCF-7 mammalian cell lines; test: Cytotoxicity, summary over all tested cell lines; assay type: cell-based; details: seven mammalian cell lines; read-out: IC50 values, range over all tested cell lines
Protocol: as §1

[4] = read-out: Minimum inhibitory concentration (MIC)
[5] = human, A431 squamous cancer cells
[6] = human, KB 3.1 endocervical adenocarcinoma cells
[7] = human, MCF-7 breast cancer cells
[8] = human, PC-3 prostate cancer cells
[9] = human, SK-OV-3 ovary cancer cells

Minimum inhibitory concentration (MIC) (Mucor hiemalis)	MIC (Bacillus subtilis) [µg/mL]	MIC (Micrococcus luteus) [µg/mL]	MIC (Staphylococcus aureus) [µg/mL]	Minimum inhibitory concentration (MIC) (Mycobacterium smegmatis)	Minimum inhibitory concentration (MIC) [2]	Minimum inhibitory concentration (MIC) (Escherichia coli)	Minimum inhibitory concentration (MIC) (Pseudomonas aeruginosa)	SMILES	Minimum inhibitory concentration (MIC) (Pichia anomala)	Minimum inhibitory concentration (MIC) (Rhodotorula glutinis)	IC50 [3] [nM]	Minimum inhibitory concentration (MIC) (Candida albicans)	Minimum inhibitory concentration (MIC) [1]	further results
2.10 µg/mL (≈ 3.26 µM)	0.2 (≈ 0.31 µM)	2.1 (≈ 3.26 µM)	1 (≈ 1.55 µM)	–	–	–	–	CCCC(=O)O[C@H]1c2cc(C)cc(O)c2C(=O)C2=C(O)[C@H]3C=C[C@]21Cc1cc(O)c2c(c13)O[C@]1(C(=O)OC)C(=C(O)CC[C@@H]1O)C2=O [Compound 3, Xanthoquinodin B11]	8.30 µg/mL (≈ 12.9 µM)	2.10 µg/mL (≈ 3.26 µM)	30 to 1460			MIC (Candida albicans; [4]): 16.7 µg/mL (≈ 25.9 µM); MIC (Mucor hiemalis): 2.1 µg/mL (≈ 3.26 µM); MIC (Pichia anomala; Hansenula anomala, read-out: Minimum inhibitory concentration (MIC)): 8.3 µg/mL (≈ 12.9 µM); MIC (Rhodotorula glutinis; [4]): 2.1 µg/mL (≈ 3.26 µM); MIC [1, 4]: 66.7 µg/mL (≈ 103 µM); IC50 (Cytotoxicity, MTT method; [5]): 50 nM; IC50 (Cytotoxicity, MTT method; human, A549 lung cancer cells): 260 nM; IC50 (Cytotoxicity, MTT method; [6]): 150 nM; IC50 (Cytotoxicity, MTT method; [7]): 40 nM; IC50 (Cytotoxicity, MTT method; [8]): 650 nM; IC50 (Cytotoxicity, MTT method; [9]): 150 nM; IC50 (Cytotoxicity, MTT method; mouse, L929 fibroblasts): 980 nM
				1.70 ^3 µg/mL				NC[C@H]1O[C@H](O[C@H]2[C@H](O)[C@@H](O[C@H]3O[C@H](CO)[C@@H](O)[C@H](N)[C@H]3O)[C@H](N)C[C@@H]2N)[C@H](O)[C@@H](O)[C@@H]1O [kanamycin, reference compound]						
	8.3 (≈ 18 µM)	0.8 (≈ 1.74 µM)	0.4 (≈ 0.869 µM)					CN(C)[C@@H]1C(O)=C(C(N)=O)C(=O)[C@@]2(O)C(O)=C3C(=O)c4c(O)cccc4[C@@](C)(O)[C@H]3[C@H](O)[C@@H]12 [oxytetracycline, reference compound]						MIC [2, 4]: 0.8 µg/mL (≈ 1.74 µM); MIC (Escherichia coli; [4]): 3.3 µg/mL (≈ 7.17 µM)
								CNC(C)C1CCC(N)C(OC2C(N)CC(N)C(OC3OCC(C)(O)C(NC)C3O)C2O)O1 (stereo not drawn) [gentamicin, reference compound]						MIC (Pseudomonas aeruginosa; [4]): 0.4 µg/mL (≈ 0.838 µM)
–	0.4 (≈ 0.621 µM)	2.1 (≈ 3.26 µM)	2.1 (≈ 3.26 µM)	–	–	–	–	CCCC(=O)O[C@H]1c2cc(C)cc(O)c2C(=O)C2=C(O)[C@H]3C=C[C@]21Cc1cc(O)c2c(c13)O[C@@]1(C(=O)OC)C(=C(O)CC[C@@H]1O)C2=O [Compound 2, Xanthoquinodin B10]	–	–	30 to 1460	–	–	IC50 (Cytotoxicity, MTT method; [5]): 60 nM; IC50 (Cytotoxicity, MTT method; human, A549 lung cancer cells): 400 nM; IC50 (Cytotoxicity, MTT method; [6]): 190 nM; IC50 (Cytotoxicity, MTT method; [7]): 40 nM; IC50 (Cytotoxicity, MTT method; [8]): 1060 nM; IC50 (Cytotoxicity, MTT method; [9]): 130 nM; IC50 (Cytotoxicity, MTT method; mouse, L929 fibroblasts): 1460 nM

SMILES	Minimum inhibitory concentration (MIC) (Mucor hiemalis)	MIC (Bacillus subtilis) [µg/mL]	MIC (Micrococcus luteus) [µg/mL]	MIC (Staphylococcus aureus) [µg/mL]	Minimum inhibitory concentration (MIC) (Mycobacterium smegmatis)	Minimum inhibitory concentration (MIC) [2]	Minimum inhibitory concentration (MIC) (Escherichia coli)	Minimum inhibitory concentration (MIC) (Pseudomonas aeruginosa)	Minimum inhibitory concentration (MIC) (Pichia anomala)	Minimum inhibitory concentration (MIC) (Rhodotorula glutinis)	IC50 [3] [nM]	Minimum inhibitory concentration (MIC) (Candida albicans)	Minimum inhibitory concentration (MIC) [1]	further results
CCCC(=O)O[C@H]1c2cc(C)cc(O)c2C(=O)C2=C(O)[C@H]3C=C[C@]21Cc1cc2c(c(O)c13)C(=O)C1=C(O)CC[C@H](O)[C@@]1(C(=O)OC)O2 [Compound 1, Xanthoquinodin A11]		0.4 (≈ 0.621 µM)	4.2 (≈ 6.52 µM)	2.1 (≈ 3.26 µM)	–	–	–	–	–	–	30 to 1460	–	–	MIC (Mucor hiemalis): 66.7 µg/mL (≈ 103 µM); IC50 (Cytotoxicity, MTT method; mouse): 1130 nM
C[C@@H]1[C@H](O)[C@@H](C)/C=C/C=C/CC/C=C/C=C/C=C/C=C/C(O[C@H]2O[C@H](C)[C@@H](O)[C@H](N)[C@@H]2O)CC2O[C@](O)(CC(O)C(O)CCC(O)CC(O)CC(O)CC(=O)O[C@H]1C)CC(O)C2C(=O)O (stereo partly drawn) [nystatin, reference compound]	33.30 ^1 µg/mL								33.30 ^1 µg/mL	16.70 ^1 µg/mL		33.30 ^1 µg/mL	33.30 ^1 µg/mL	
